Data on 1 molecule can be found in ChEMBL document CHEMBL4229325, “Angiogenesis and cancer stem cells: New perspectives on therapy of ovarian cancer” (Eur J Med Chem, 2017).

What is called IC50 is the concentration at which inhibition is half-maximal.

The subject of assay [1] is 2008. Kind of assay: Cytotoxicity against human OV2008 cells assessed as reduction in cell viability incubated for 24 hrs by MTT assay. The assay is classed as functional, cell-based. Conditions: Homo sapiens, 2008, 24 h. (In general: Tetrazolium assays rely on reduction of a dye to a coloured formazan, in cell work by metabolically active cells.)
The nature of assay [2]: Cytotoxicity against human A2780cis cells assessed as cell viability at 8 uM incubated for 72 hrs by MTT assay. The assay is classed as functional. Conditions: read-out: Activity.
Assay [3] deals with NCI/ADR-RES. Kind of assay: Cytotoxicity against human NCI-ADR-RES cells assessed as cell viability at 4 uM incubated for 72 hrs by MTT assay. The assay is classed as functional. To be noted: read-out: Activity.
Assay [4] in a line: Growth inhibition of human ovarian cancer stem cells at 0.5 uM in presence of 20 nM PTX. The assay is classed as functional.
Assay [5] can be described thus: Cytotoxicity against human A2780/DX cells assessed as cell viability at 8 uM incubated for 72 hrs by MTT assay. The assay is classed as functional. To be noted: read-out: Activity.
The subject of assay [6] is NCI/ADR-RES. Kind of assay: Cytotoxicity against human NCI-ADR-RES cells assessed as cell viability at 8 uM incubated for 72 hrs by MTT assay. To be noted: read-out: Activity. The assay is classed as functional.
Assay [7] can be described thus: Growth inhibition of human ovarian epithelial cancer cells at 0.5 uM in presence of 20 nM PTX. The assay is classed as functional.
The subject of assay [8] is OVCAR-8. Kind of assay: Cytotoxicity against human OVCAR8 cells assessed as cell viability level at 8 uM incubated for 72 hrs by MTT assay. The assay is classed as functional.
The next assay deals with C13. The experiment in a line: Antitumor activity against human C13 cells xenografted in mouse assessed as tumor volume at 5 mg/kg, ip dosed every other day for 3 weeks and measured every two days (reference value: 252.5 +/- 63.4 mm3). The assay is classed as functional. Background: Xenograft models place foreign cells or tissue in a host animal.
In assay [9] the test system is OVCAR-8. The experiment in a line: Cytotoxicity against human OVCAR8 cells assessed as cell viability level at 4 uM incubated for 72 hrs by MTT assay. The assay is classed as functional.
Assay [10] is described as follows: Cytotoxicity against human A2780/DX cells assessed as cell viability at 4 uM incubated for 72 hrs by MTT assay. The assay is classed as functional. Conditions: read-out: Activity.
For assay [11], the system named is 2008. Kind of assay: Cytotoxicity against human OV2008 cells assessed as reduction in cell viability incubated for 48 hrs by MTT assay. The assay is classed as functional, cell-based. To be noted: Homo sapiens, 2008, 48 h.
Assay [12] deals with 2008. The experiment in a line: Cytotoxicity against human OV2008 cells assessed as reduction in cell viability incubated for 72 hrs by MTT assay. The assay is classed as functional, cell-based. To be noted: Homo sapiens, 2008, 72 h.

Turning to `CC[C@@H](C(=O)[C@@H](C)[C@@H](O)[C@H](C)[C@@H]1O[C@@H]([C@@H](CC)C(=O)O)CC[C@@H]1C)[C@H]1O[C@]2(C=C[C@@H](O)[C@]3(CC[C@@](C)([C@H]4CC[C@](O)(CC)[C@H](C)O4)O3)O2)[C@H](C)C[C@@H]1C` [SALINOMYCIN], the half-maximal inhibitory concentration (IC50) turned out to be 7.44 µM in the assay on 2008 [1], 4.78 µM with 2008 [11] and 3.2 µM in the assay with 2008 [12]. Further, the viability at 8 µM in assay [2] worked out at 55%; in assay [5], 43%; with NCI/ADR-RES [6], 37%. Besides, the viability at 4 µM (with NCI/ADR-RES [3]; in assay [10]) was 50% throughout. The “growth inhibition (GI)” value was 59% in [4] and 58% in assay [7]. Further, the Activity with OVCAR-8 [8] worked out at 45%; with C13, 84.2 mm3; in the assay on OVCAR-8 [9] it was 53%.
